The subject of data set [1] is Rattus norvegicus. As to the kind of experiment: Antipsychotic activity in ip dosed Sprague-Dawley rat assessed as inhibition of amphetamine-induced stereotyped-behavior administered 15 mins post amphetamine-challenge measured for 4 hrs. The note with it: for minimal effective dose: read-out: MED. It counts as functional.
Data set [2] has as its system Rattus norvegicus. The data set can be described thus: Antipsychotic activity in ip dosed Sprague-Dawley rat assessed as suppression of conditioned avoidance response after 30 mins. In kind it is functional.
Data set [3] has as its system Rattus norvegicus. As to the kind of experiment: Antipsychotic activity in ip dosed Sprague-Dawley rat assessed as protection against epinephrine-induced mortality administered 1 hr prior to epinephrine-challenge measured up to 24 hrs. It counts as functional.
The species named for data set [4] is Rattus norvegicus. The data set can be described thus: Toxicity in Sprague-Dawley rat assessed as catalepsy at 10 times MED after 1 to 24 hrs relative to control. In kind it is organism-based. The note with it: in vivo.
The species named for data set [5] is Rattus norvegicus. The data set can be described thus: Toxicity in Sprague-Dawley rat assessed as catalepsy at 10 times MED assessed as time required to reach peak effect. It counts as organism-based. Particulars: in vivo.
For data set [6], the system named is Rattus norvegicus. The data set can be described thus: Relative adrenolytic potency, ratio of ED50 for protection against epinephrine-induced mortality in ip dosed Sprague-Dawley rat to MED for suppression of conditioned avoidance response in ip dosed Sprague-Dawley rat. In kind it is functional.
The subject of data set [7] is Rattus norvegicus. The data set can be described thus: Ratio of MED for inhibition of amphetamine-induced stereotyped-behavior in ip dosed Sprague-Dawley rat to ED50 for suppression of conditioned avoidance response in ip dosed Sprague-Dawley rat. It counts as functional.

For `Cl.O[C@]1(c2ccccc2)CCN2C[C@@H]3c4ccccc4CCc4cccc(c43)[C@H]2C1` (racemic), in the data set on Rattus norvegicus [1], the inhibition result was “Dose-dependent effect” and the minimal effective dose is 2.5 mg/kg. Also, the ED50 in the data set on Rattus norvegicus [2] (0.5 h) amounted to 3 mg/kg. Besides, the ED50 in the data set with Rattus norvegicus [3] is 5.5 mg/kg. Also, the “%max” value in the data set listed under Rattus norvegicus [4] came to 32%. In addition, the Time in the data set filed under Rattus norvegicus [5] stood at 6 h. For the same molecule, the Ratio with Rattus norvegicus [6] worked out at 2.2.

On to `Cc1ccccc1[C@@]1(O)CCN2C[C@@H]3c4ccccc4CCc4cccc(c43)[C@H]2C1.Cl` (racemic), for which, in the data set with Rattus norvegicus [1], the inhibition entry is “Dose-dependent effect”. Also, the minimal effective dose in the data set with Rattus norvegicus [1] turned out to be 1.25 mg/kg. In addition, the results for the ED50 in the data set on Rattus norvegicus [2] (0.5 h) and with Rattus norvegicus [3] were 3.3 mg/kg and 6.4 mg/kg, respectively. The Ratio in the data set on Rattus norvegicus [7] is 0.38; with Rattus norvegicus [6], 5.1. Further, in the data set filed under Rattus norvegicus [4], the “%max” value is given as 61%. In addition, the Time in the data set filed under Rattus norvegicus [5] came to 4 h.

With `Cl.O[C@]1(Cc2ccccc2)CCN2C[C@@H]3c4ccccc4CCc4cccc(c43)[C@H]2C1` (racemic), in the data set on Rattus norvegicus [1], the inhibition result was “Dose-dependent effect” and the minimal effective dose was above 20 mg/kg. In addition, in the data set on Rattus norvegicus [3], the ED50 was above 40 mg/kg.

As for `COc1ccccc1[C@@]1(O)CCN2C[C@@H]3c4ccccc4CCc4cccc(c43)[C@H]2C1.Cl` (racemic), the inhibition result in the data set on Rattus norvegicus [1] is “Dose-dependent effect”. For the same molecule, in the data set with Rattus norvegicus [1], the minimal effective dose worked out at 0.63 mg/kg. Besides, the ED50 was 0.92 mg/kg in the data set on Rattus norvegicus [2] (0.5 h) and 4 mg/kg in the data set with Rattus norvegicus [3]. In addition, the “%max” value in the data set filed under Rattus norvegicus [4] came out at 89%. Moreover, the Time in the data set listed under Rattus norvegicus [5] came out at 4 h. Besides, the Ratio in the data set with Rattus norvegicus [6] stood at 6.3.

For the molecule `COc1cccc([C@@]2(O)CCN3C[C@@H]4c5ccccc5CCc5cccc(c54)[C@H]3C2)c1.Cl` (racemic), in the data set with Rattus norvegicus [1], the inhibition result is “Dose-dependent effect” and the minimal effective dose is 1.25 mg/kg. In the data set on Rattus norvegicus [2] (0.5 h), the ED50 stood at 1.4 mg/kg. The ED50 in the data set with Rattus norvegicus [3] was found to be 2.7 mg/kg. For the same molecule, the “%max” value in the data set filed under Rattus norvegicus [4] is given as 83%. In addition, the Time in the data set filed under Rattus norvegicus [5] came out at 6 h. Moreover, the Ratio in the data set on Rattus norvegicus [6] was determined as 2.2.

In the case of `COc1ccc([C@@]2(O)CCN3C[C@@H]4c5ccccc5CCc5cccc(c54)[C@H]3C2)cc1.Cl` (racemic), the inhibition entry with Rattus norvegicus [1] was “Dose-dependent effect”. Moreover, the minimal effective dose in the data set on Rattus norvegicus [1] came to 2.5 mg/kg. The ED50 was determined as 5.8 mg/kg with Rattus norvegicus [2] (0.5 h) and 13.2 mg/kg with Rattus norvegicus [3]. Besides, the Ratio was found to be 0.43 with Rattus norvegicus [7] and 5.3 in the data set with Rattus norvegicus [6]. In addition, in the data set filed under Rattus norvegicus [4], the “%max” value turned out to be 83%. Further, the Time in the data set listed under Rattus norvegicus [5] came out at 6 h.

For the molecule `COc1ccc([C@@]2(O)CCN3C[C@@H]4c5ccccc5CCc5cccc(c54)[C@H]3C2)cc1OC.Cl` (racemic), the inhibition entry with Rattus norvegicus [1] is “Dose-dependent effect”. Also, the minimal effective dose with Rattus norvegicus [1] came out at 5 mg/kg. Moreover, the ED50 in the data set with Rattus norvegicus [2] (0.5 h) came to 6 mg/kg; in the data set with Rattus norvegicus [3], 1.1 mg/kg. For the same molecule, the “%max” value in the data set filed under Rattus norvegicus [4] is reported as 100%. The Time in the data set filed under Rattus norvegicus [5] stood at 4 h. In addition, in the data set with Rattus norvegicus [6], the Ratio is reported as 0.22.

In the case of `COc1ccc([C@@]2(O)CCN3C[C@@H]4c5ccccc5CCc5cccc(c54)[C@H]3C2)c(OC)c1.Cl` (racemic), the inhibition entry in the data set on Rattus norvegicus [1] was “Dose-dependent effect”. In the data set on Rattus norvegicus [1], the minimal effective dose amounted to 10 mg/kg. The values for the ED50 with Rattus norvegicus [2] (0.5 h) and in the data set on Rattus norvegicus [3] were 16 mg/kg and 18 mg/kg, respectively. For the same molecule, the “%max” value in the data set listed under Rattus norvegicus [4] was 44%. Besides, the Time in the data set listed under Rattus norvegicus [5] came to 6 h. Further, in the data set with Rattus norvegicus [6], the Ratio was determined as 1.8.

With `Cl.O[C@]1(c2ccccc2Cl)CCN2C[C@@H]3c4ccccc4CCc4cccc(c43)[C@H]2C1` (racemic), in the data set on Rattus norvegicus [1], the inhibition result is “Dose-dependent effect” and the minimal effective dose amounted to 2.5 mg/kg. Moreover, the ED50 in the data set with Rattus norvegicus [2] (0.5 h) is 3.3 mg/kg. The ED50 in the data set with Rattus norvegicus [3] worked out at 11 mg/kg. Further, in the data set listed under Rattus norvegicus [4], the “%max” value stood at 100%. In the data set listed under Rattus norvegicus [5], the Time was found to be 4 h. In the data set on Rattus norvegicus [6], the Ratio is given as 4.4.

Turning to `Cl.O[C@]1(c2cccc(F)c2)CCN2C[C@@H]3c4ccccc4CCc4cccc(c43)[C@H]2C1` (racemic), in the data set with Rattus norvegicus [1], the inhibition entry was “Dose-dependent effect” and the minimal effective dose amounted to 5 mg/kg. In addition, in the data set on Rattus norvegicus [2] (0.5 h), the ED50 is 7 mg/kg. In the data set on Rattus norvegicus [3], the ED50 amounted to 14.3 mg/kg. Moreover, the “%max” value in the data set listed under Rattus norvegicus [4] is 100%. The Time in the data set listed under Rattus norvegicus [5] is 4 h. For the same molecule, the Ratio in the data set on Rattus norvegicus [6] amounted to 2.9.

On to `Cl.O[C@]1(c2ccc(Br)cc2)CCN2C[C@@H]3c4ccccc4CCc4cccc(c43)[C@H]2C1` (racemic), for which, in the data set on Rattus norvegicus [1], the inhibition entry was “Dose-dependent effect” and the minimal effective dose worked out at 20 mg/kg. In the data set with Rattus norvegicus [2] (0.5 h), the ED50 came out at 14 mg/kg. Further, the ED50 in the data set on Rattus norvegicus [3] was 6.9 mg/kg. Further, the “%max” value in the data set filed under Rattus norvegicus [4] worked out at 72%. For the same molecule, the Time in the data set listed under Rattus norvegicus [5] was determined as 4 h. For the same molecule, the Ratio in the data set with Rattus norvegicus [6] is on record as 0.35.

Regarding `Cl.O[C@]1(c2ccccc2C(F)(F)F)CCN2C[C@@H]3c4ccccc4CCc4cccc(c43)[C@H]2C1` (racemic), the inhibition result in the data set on Rattus norvegicus [1] is “Dose-dependent effect”. Moreover, in the data set with Rattus norvegicus [1], the minimal effective dose worked out at 10 mg/kg. The ED50 in the data set on Rattus norvegicus [2] (0.5 h) was 22.2 mg/kg; in the data set with Rattus norvegicus [3], above 20 mg/kg. The Ratio is recorded as 0.45 in the data set on Rattus norvegicus [7] and above 2 with Rattus norvegicus [6]. Moreover, the “%max” value in the data set filed under Rattus norvegicus [4] is on record as 100%. For the same molecule, the Time in the data set filed under Rattus norvegicus [5] worked out at 6 h.

Regarding `Cl.O[C@]1(c2cccs2)CCN2C[C@@H]3c4ccccc4CCc4cccc(c43)[C@H]2C1` (racemic), the inhibition entry in the data set on Rattus norvegicus [1] is “Dose-dependent effect”. Besides, the minimal effective dose with Rattus norvegicus [1] is 2.5 mg/kg. Further, the ED50 was 5.6 mg/kg with Rattus norvegicus [2] (0.5 h) and 22 mg/kg in the data set with Rattus norvegicus [3]. In addition, the values for the Ratio in the data set on Rattus norvegicus [7] and with Rattus norvegicus [6] were 0.45 and 8.8, respectively. Moreover, the “%max” value in the data set listed under Rattus norvegicus [4] is 100%. For the same molecule, the Time in the data set listed under Rattus norvegicus [5] is 6 h.

In the case of `Cl.O[C@]1(c2ccsc2)CCN2C[C@@H]3c4ccccc4CCc4cccc(c43)[C@H]2C1` (racemic), in the data set with Rattus norvegicus [1], the inhibition result was “Dose-dependent effect” and the minimal effective dose turned out to be 5 mg/kg. Moreover, the ED50 with Rattus norvegicus [2] (0.5 h) was found to be 8 mg/kg. In addition, in the data set on Rattus norvegicus [3], the ED50 amounted to 90 mg/kg. The “%max” value in the data set listed under Rattus norvegicus [4] amounted to 93%. Moreover, the Time in the data set filed under Rattus norvegicus [5] was 6 h. Also, in the data set on Rattus norvegicus [6], the Ratio was 18.

In the case of `Cl.O[C@]1(c2ccco2)CCN2C[C@@H]3c4ccccc4CCc4cccc(c43)[C@H]2C1` (racemic), in the data set with Rattus norvegicus [1], the inhibition entry was “Dose-dependent effect” and the minimal effective dose stood at 5 mg/kg. The ED50 with Rattus norvegicus [2] (0.5 h) turned out to be 6.7 mg/kg. In the data set with Rattus norvegicus [3], the ED50 was 82 mg/kg. Further, the “%max” value in the data set listed under Rattus norvegicus [4] is 83%. Also, the Time in the data set listed under Rattus norvegicus [5] came to 4 h. The Ratio in the data set on Rattus norvegicus [6] came out at 16.4.

With `Cl.O[C@]1(c2cccnc2)CCN2C[C@@H]3c4ccccc4CCc4cccc(c43)[C@H]2C1` (racemic), the inhibition result with Rattus norvegicus [1] is “Dose-dependent effect”. In addition, the minimal effective dose in the data set on Rattus norvegicus [1] was found to be 5 mg/kg. Also, the ED50 in the data set with Rattus norvegicus [2] (0.5 h) was 1 mg/kg; in the data set with Rattus norvegicus [3], 4.7 mg/kg. Also, the “%max” value in the data set filed under Rattus norvegicus [4] came to 94%. Further, the Time in the data set filed under Rattus norvegicus [5] came to 4 h. Besides, the Ratio with Rattus norvegicus [6] is on record as 0.94.

Take `CN(C)CCCN1c2ccccc2Sc2ccc(Cl)cc21` [CHLORPROMAZINE]: in the data set on Rattus norvegicus [7], the Ratio is recorded as 1.

As to `OCCN1CCN(CCCN2c3ccccc3Sc3ccc(C(F)(F)F)cc32)CC1` [FLUPHENAZINE], the Ratio in the data set on Rattus norvegicus [7] was 1.

On to `O=C(CCCN1CCC(O)(c2ccc(Cl)cc2)CC1)c1ccc(F)cc1` [HALOPERIDOL], for which the Ratio in the data set with Rattus norvegicus [7] worked out at 1.

`CSc1ccc2c(c1)N(CCC1CCCCN1C)c1ccccc1S2` (stereo unspecified) [THIORIDAZINE]: the Ratio with Rattus norvegicus [7] was determined as 1.

Turning to Butaclamol, the MED in the data set on Rattus norvegicus [1] worked out at 0.63 mg/kg. For the same molecule, the ED50 turned out to be 0.64 mg/kg in the data set on Rattus norvegicus [2] and 15 mg/kg with Rattus norvegicus [3]. Moreover, the Ratio in the data set on Rattus norvegicus [7] turned out to be 1; with Rattus norvegicus [6], 24.

Values taken from ChEMBL document CHEMBL3244311, “Neuroleptics related to butaclamol. Synthesis and some psychopharmacological effects of a series of 3-aryl analogues” (J Med Chem, 1978).
